The test system of this assay is recombinant NL-Rluc virus (NL4-3 with Renilla Luciferase gene) in MT-2 cells. Put plainly: Inhibition of HIV replication (NL-Rluc luciferase reporter virus, MT-2 cells). The class given is cell-based, human immunodeficiency virus (HIV). As to conditions: NL43, 120 h.

This note sets out measurements from patent publication US8633200B2, “Inhibitors of human immunodeficiency virus replication” (priority 2010, dated 2014).

Where a name gives a salt, the structure may show the parent alone. Read-outs that look alike come from different tables or passages of the source.

As to `Cc1nc2cc(-c3cccc(OCc4cccc(Cl)c4)c3)nn2c(-c2cc(F)c3c(c2C)CCCO3)c1C(OC(C)(C)C)C(=O)O` (stereo not shown) [Example 104, 2-tert-Butoxy-2-(2-(3-(3-chlorobenzyloxy)phenyl)-7-(8-fluoro-5-methylchroman-6-yl)-5-methylpyrazolo[1,5-a]pyrimidin-6-yl)acetic acid, TFA salt], the EC50 (read-out: Activity) is below 0.1 µM.

For `Cc1ccc(-c2cc3nc(C)c(C(OC(C)(C)C)C(=O)O)c(-c4cc(F)c5c(c4C)CCCO5)n3n2)cc1OCc1ccccc1` (stereo not shown) [Example 105, 2-(2-(3-(Benzyloxy)-4-methylphenyl)-7-(8-fluoro-5-methylchroman-6-yl)-5-methylpyrazolo[1,5-a]pyrimidin-6-yl)-2-tert-butoxyacetic acid], the EC50 (read-out: Activity) is below 0.1 µM.

For `Cc1nc2cc(-c3cccc(OCc4ccc(Cl)cc4)c3)nn2c(-c2cc(F)c3c(c2C)CCCO3)c1C(OC(C)(C)C)C(=O)O` (stereo not shown) [Example 106, 2-tert-Butoxy-2-(2-(3-(4-chlorobenzyloxy)phenyl)-7-(8-fluoro-5-methylchroman-6-yl)-5-methylpyrazolo[1,5-a]pyrimidin-6-yl)acetic acid, TFA salt], the EC50 is, setting by setting: (read-out: Activity) below 0.1 µM; (read-out: EC50 μM) 0.04 µM.

For the compound `Cc1nc2cc(-c3ccnc(OCc4ccccc4)c3)nn2c(-c2cc(F)c3c(c2C)CCCO3)c1C(OC(C)(C)C)C(=O)O` (stereo not shown) [Example 107, 2-(2-(2-(Benzyloxy)pyridin-4-yl)-7-(8-fluoro-5-methylchroman-6-yl)-5-methylpyrazolo[1,5-a]pyrimidin-6-yl)-2-tert-butoxyacetic acid, TFA salt], the EC50 is below 0.1 µM (read-out: Activity) and 0.008 µM (read-out: EC50 μM).

As to `Cc1nc2cc(-c3ccc(OCc4ccccc4)nc3)nn2c(-c2cc(F)c3c(c2C)CCCO3)c1C(OC(C)(C)C)C(=O)O` (stereo not shown) [Example 108, 2-(2-(6-(Benzyloxy)pyridin-3-yl)-7-(8-fluoro-5-methylchroman-6-yl)-5-methylpyrazolo[1,5-a]pyrimidin-6-yl)-2-tert-butoxyacetic acid, TFA salt], the EC50 (read-out: Activity) was below 0.1 µM.

With `Cc1nc2cc(-c3ccnc(F)c3)nn2c(-c2cc(F)c3c(c2C)CCCO3)c1C(OC(C)(C)C)C(=O)O` (stereo not shown) [Example 109, 2-tert-Butoxy-2-(7-(8-fluoro-5-methylchroman-6-yl)-2-(2-fluoropyridin-4-yl)-5-methylpyrazolo[1,5-a]pyrimidin-6-yl)acetic acid, TFA salt], the EC50 by setting is: (read-out: Activity) 0.1 to 1 µM; (read-out: EC50 μM) 0.27 µM.

As for `Cc1nc2cc(-c3cccc(C(=O)Nc4ccccc4)c3)nn2c(-c2cc(F)c3c(c2C)CCCO3)c1C(OC(C)(C)C)C(=O)O` (stereo not shown) [Example 110, 2-tert-Butoxy-2-(7-(8-fluoro-5-methylchroman-6-yl)-5-methyl-2-(3-(phenylcarbamoyl)phenyl)pyrazolo[1,5-a]pyrimidin-6-yl)acetic acid, TFA salt], the EC50 (read-out: Activity) was in the range of 0.1 to 1 µM.

In the case of `Cc1nc2cc(-c3cccc(C(=O)NCc4ccccc4)c3)nn2c(-c2cc(F)c3c(c2C)CCCO3)c1C(OC(C)(C)C)C(=O)O` (stereo not shown) [Example 111, 2-(2-(3-(Benzylcarbamoyl)phenyl)-7-(8-fluoro-5-methylchroman-6-yl)-5-methylpyrazolo[1,5-a]pyrimidin-6-yl)-2-tert-butoxyacetic acid, TFA salt], the EC50 (read-out: Activity) lay within 0.1 to 1 µM.

In the case of `Cc1nc2cc(-c3ccc(Oc4ccccc4)cc3)nn2c(-c2ccc3c(c2)CCCO3)c1C(OC(C)(C)C)C(=O)O` (stereo not shown) [Example 112, 2-tert-Butoxy-2-(7-(chroman-6-yl)-5-methyl-2-(4-phenoxyphenyl)pyrazolo[1,5-a]pyrimidin-6-yl)acetic acid, TFA salt], the EC50 (read-out: Activity) fell in the range of 0.1 to 1 µM.

As to `Cc1nc2cc(-c3ccc4c(c3)CCCO4)nn2c(-c2ccc3c(c2)CCCO3)c1C(OC(C)(C)C)C(=O)O` (stereo not shown) [Example 113, 2-tert-Butoxy-2-(2,7-di(chroman-6-yl)-5-methylpyrazolo[1,5-a]pyrimidin-6-yl)acetic acid, TFA salt], the EC50 by setting is: (read-out: Activity) 0.1 to 1 µM; (read-out: EC50 μM) 0.11 µM.

`Cc1cccc(-c2cc3nc(C)c(C(OC(C)(C)C)C(=O)O)c(-c4ccc5c(c4)CCCO5)n3n2)c1` (stereo not shown) [Example 114, 2-tert-Butoxy-2-(7-(chroman-6-yl)-5-methyl-2-m-tolylpyrazolo[1,5-a]pyrimidin-6-yl)acetic acid, TFA salt]: the EC50 (read-out: Activity) fell in the range of 0.1 to 1 µM.

For the compound `Cc1ccccc1-c1cccc(-c2cc3nc(C)c([C@H](OC(C)(C)C)C(=O)O)c(-c4cc(F)c5c(c4C)CCCO5)n3n2)c1` [Example 115, (2S)-2-(tert-Butoxy)-2-(7-(8-fluoro-5-methylchroman-6-yl)-5-methyl-2-(2′-methyl-[1,1′-biphenyl]-3-yl)pyrazolo[1,5-a]pyrimidin-6-yl)acetic acid], the EC50 is, setting by setting: (read-out: Activity) below 0.1 µM; (read-out: EC50 μM) 0.02 µM.

In the case of `COc1ccccc1-c1cccc(-c2cc3nc(C)c([C@H](OC(C)(C)C)C(=O)O)c(-c4cc(F)c5c(c4C)CCCO5)n3n2)c1` [Example 116, (2S)-2-(tert-Butoxy)-2-(7-(8-fluoro-5-methylchroman-6-yl)-2-(2′-methoxy-[1,1′-biphenyl]-3-yl)-5-methylpyrazolo[1,5-a]pyrimidin-6-yl)acetic acid], where the note is “read-out: Activity”, the EC50 is below 0.1 µM.

Regarding `COc1ccncc1-c1cccc(-c2cc3nc(C)c([C@H](OC(C)(C)C)C(=O)O)c(-c4cc(F)c5c(c4C)CCCO5)n3n2)c1` [Example 117, (2S)-2-(tert-Butoxy)-2-(7-(8-fluoro-5-methylchroman-6-yl)-2-(3-(4-methoxypyridin-3-yl)phenyl)-5-methylpyrazolo[1,5-a]pyrimidin-6-yl)acetic acid], under “read-out: Activity”, the EC50 is below 0.1 µM.

Consider `Cc1nc2cc(-c3cccc(-c4ccccc4F)c3)nn2c(-c2cc(F)c3c(c2C)CCCO3)c1[C@H](OC(C)(C)C)C(=O)O` [Example 118, (2S)-2-(tert-Butoxy)-2-(7-(8-fluoro-5-methylchroman-6-yl)-2-(2′-fluoro-[1,1′-biphenyl]-3-yl)-5-methylpyrazolo[1,5-a]pyrimidin-6-yl)acetic acid], for which, where the note is “read-out: Activity”, the EC50 was below 0.1 µM.

As for `Cc1nc2cc(-c3cccc(-c4cccnc4)c3)nn2c(-c2cc(F)c3c(c2C)CCCO3)c1[C@H](OC(C)(C)C)C(=O)O` [Example 119, (2S)-2-(tert-Butoxy)-2-(7-(8-fluoro-5-methylchroman-6-yl)-5-methyl-2-(3-(pyridin-3-yl)phenyl)pyrazolo[1,5-a]pyrimidin-6-yl)acetic acid], for the setting “read-out: Activity”, the EC50 is below 0.1 µM.

On to `Cc1nc2cc(-c3cccc(-c4ccc5c(cnn5C)c4)c3)nn2c(-c2cc(F)c3c(c2C)CCCO3)c1[C@H](OC(C)(C)C)C(=O)O` [Example 120, (2S)-2-(tert-Butoxy)-2-(7-(8-fluoro-5-methylchroman-6-yl)-5-methyl-2-(3-(1-methyl-1H-indazol-5-yl)phenyl)pyrazolo[1,5-a]pyrimidin-6-yl)acetic acid], for which the EC50 reads like this: (read-out: Activity) below 0.1 µM; (read-out: EC50 μM) 0.002 µM.

Consider `Cc1nc2cc(-c3cccc(-c4ccncc4)c3)nn2c(-c2cc(F)c3c(c2C)CCCO3)c1[C@H](OC(C)(C)C)C(=O)O` [Example 121, (2S)-2-(tert-Butoxy)-2-(7-(8-fluoro-5-methylchroman-6-yl)-5-methyl-2-(3-(pyridin-4-yl)phenyl)pyrazolo[1,5-a]pyrimidin-6-yl)acetic acid, TFA salt], for which, where the note is “read-out: Activity”, the EC50 is below 0.1 µM.

On to `Cc1nc2cc(-c3cccc(-c4ccncc4)c3)nn2c(-c2cc(F)c3c(c2C)CCCO3)c1[C@@H](OC(C)(C)C)C(=O)O` [Example 122, (2R)-2-(tert-Butoxy)-2-(7-(8-fluoro-5-methylchroman-6-yl)-5-methyl-2-(3-(pyridin-4-yl)phenyl)pyrazolo[1,5-a]pyrimidin-6-yl)acetic acid, TFA salt], for which the EC50 (read-out: Activity) was above 1 µM.

As for `Cc1nc2cc(-c3cccc(Cl)c3)nn2c(-c2cc(F)c3c(c2C)CCCO3)c1[C@H](OC(C)(C)C)C(=O)O` [Example 123, (2S)-2-(tert-Butoxy)-2-(2-(3-chlorophenyl)-7-(8-fluoro-5-methylchroman-6-yl)-5-methylpyrazolo[1,5-a]pyrimidin-6-yl)acetic acid, TFA salt], the EC50 (read-out: Activity) is below 0.1 µM.

Take `Cc1nc2cc(-c3cccc(-c4ccc(F)cc4)c3)nn2c(-c2cc(F)c3c(c2C)CCCO3)c1[C@H](OC(C)(C)C)C(=O)O` [Example 124, (2S)-2-(tert-Butoxy)-2-(7-(8-fluoro-5-methylchroman-6-yl)-2-(4′-fluoro-[1,1′-biphenyl]-3-yl)-5-methylpyrazolo[1,5-a]pyrimidin-6-yl)acetic acid, TFA salt]: the EC50 (read-out: Activity) was below 0.1 µM.

Turning to `Cc1nc2cc(-c3cccc(-c4ccccc4)c3)nn2c(-c2cc(F)c3c(c2C)CCCO3)c1[C@H](OC(C)(C)C)C(=O)O` [Example 125, (2S)-2-(2-([1,1′-Biphenyl]-3-yl)-7-(8-fluoro-5-methylchroman-6-yl)-5-methylpyrazolo[1,5-a]pyrimidin-6-yl)-2-(tert-butoxy)acetic acid], the EC50 (read-out: Activity) is below 0.1 µM.

Consider `Cc1ccc(-c2cccc(-c3cc4nc(C)c([C@H](OC(C)(C)C)C(=O)O)c(-c5cc(F)c6c(c5C)CCCO6)n4n3)c2)cc1` [Example 126, (2S)-2-(tert-Butoxy)-2-(7-(8-fluoro-5-methylchroman-6-yl)-2-(4′-methyl-[1,1′-biphenyl]-3-yl)-5-methylpyrazolo[1,5-a]pyrimidin-6-yl)acetic acid, TFA salt], for which the EC50 (read-out: Activity) was below 0.1 µM.

Turning to `COc1ccc(-c2cccc(-c3cc4nc(C)c([C@H](OC(C)(C)C)C(=O)O)c(-c5cc(F)c6c(c5C)CCCO6)n4n3)c2)cc1` [Example 127, (2S)-2-(tert-Butoxy)-2-(7-(8-fluoro-5-methylchroman-6-yl)-2-(4′-methoxy-[1,1′-biphenyl]-3-yl)-5-methylpyrazolo[1,5-a]pyrimidin-6-yl)acetic acid, TFA salt], for the setting “read-out: Activity”, the EC50 was below 0.1 µM.

As for `Cc1nc2cc(-c3cccc(-c4cccc(F)c4)c3)nn2c(-c2cc(F)c3c(c2C)CCCO3)c1[C@H](OC(C)(C)C)C(=O)O` [Example 128, (2S)-2-(tert-Butoxy)-2-(7-(8-fluoro-5-methylchroman-6-yl)-2-(3′-fluoro-[1,1′-biphenyl]-3-yl)-5-methylpyrazolo[1,5-a]pyrimidin-6-yl)acetic acid, TFA salt], under “read-out: Activity”, the EC50 is below 0.1 µM.
